Tests used:
human C3aR (HMDMs) = assay: inhibition of ligand-induced ERK1/2 phosphorylation by SB290157 in HMDMs; assay type: cell-based; conditions: 5 µM SB290157, 30 min pre-treatment
Description: HMDMs were generated and cultured as previously described ([20]), with experiments approved by The University of Queensland Human Research Ethics Committee. Briefly, human buffy coat blood from anonymous healthy donors was obtained through the Australian Red Cross Blood Service (Brisbane, Australia). Human CD14+ monocytes were isolated from blood using Lymphoprep density centrifugation (STEMCELL, Melbourne, Australia) followed by CD14+ MACS magnetic bead separation (Miltenyi Biotec, Sydney, Australia). The isolated monocytes were differentiated for 7 days in Iscove’s Modified Dulbecco’s Medium supplemented with 10% FBS, 100 IU/ml penicillin, 100 μg/ml streptomycin and 15 ng/ml recombinant human macrophage colony stimulating factor (BioLegend, San Diego, USA) on 10 mm square dishes (Bio-strategy, Brisbane, Australia). Non-adherent cells were removed by washing with DPBS, and the adherent differentiated HMDMs were harvested by gentle scraping.
Ligand-induced ERK1/2 phosphorylation was assessed using the AlphaLISA Surefire Ultra p-ERK1/2 (Thr202/Tyr204) kit (PerkinElmer, Melbourne, Australia) following the manufacturer’s protocol as previously described ([18], [20], [22]). Briefly, CHO-K1, CHO-C3aR, CHO-C5aR1, HMDMs (50,000/well) or BMDMs (90,000/well) were seeded in tissue culture-treated 96-well plates (Corning, Corning, USA) for 24 h and serum-starved overnight. All ligand dilutions were prepared in serum-free medium (SFM) containing 0.1% BSA. For inhibition assays, cells were pre-treated with the following ligands (5 µM SB290157, or respective concentrations of hC3a, mC3a, hC5a, hTLQP-21, and mTLQP-21) or the solvent-only control for 30 min before agonist (hC3a, hTLQP-21 and mTLQP-21) addition. The concentration and identity of the ligands are described in detail in the figure legends. For stimulation, cells were treated with ligands at the indicated concentrations for 10 min at RT and then immediately lysed using AlphaLISA lysis buffer on a microplate shaker (450 rpm, 10 min). For the detection of phospho-ERK1/2 content, cell lysate (5 μL/well) was transferred to a 384-well ProxiPlate (PerkinElmer, Melbourne, Australia) and added to the donor and acceptor reaction mix (2.5 μL/well, respectively), followed by a 2-h incubation at RT in the dark. On a Tecan Spark 20M (Tecan, Männedorf, Switzerland), the plate was measured using standard AlphaLISA settings.
Figure 3 Agonistic and antagonistic activities of hTLQP-21 and mTLQP-21 in human monocyte-derived macrophages. […] The phospho-ERK1/2 content in the cell lysate was measured and normalised to the maximum hC3a/hC5a-induced levels before being combined. […]

C3aR = conditions: at the concentration used (5 µM); ref [20]; cited from earlier work
Description: (§1) However, only mouse TLQP-21 was used in these studies and to the best of our knowledge, no data is available for the potential activity of TLQP-21 in human immune cells. […] However, by contrast to hC3a, the agonistic activity of TLQP-21 peptides was markedly weaker in HMDMs relative to CHO-C3aR, with EC50 values in the high micromolar ...

C5aR1 = conditions: at the concentration used (5 µM); ref [20]; cited from earlier work
Description: as §1

NC(N)=NCCC[C@H](NC(=O)COCC(c1ccccc1)c1ccccc1)C(=O)O [SB290157]
inhibition of hTLQP-21 and mTLQP-21 induced ERK signalling (human C3aR (HMDMs); HMDMs, n = 4 donors): 70-90%
remaining C3a-induced ERK signalling with SB290157 (human C3aR (HMDMs); agonist C3a, HMDMs): less than 20 % of the untreated level
remaining hTLQP-21 induced ERK activation with SB290157 (human C3aR (HMDMs); agonist hTLQP-21): 29 % of the control level
remaining mTLQP-21 induced ERK activation with SB290157 (human C3aR (HMDMs); agonist mTLQP-21): 16 % of the control level
agonist activity of SB290157 on C3aR (C3aR): does not exhibit any detectable agonist activity
agonist activity of SB290157 on C5aR1 (C5aR1): does not exhibit any detectable agonist activity
